What was measured:
[1] = system: primordial follicles in cultured mouse ovaries; test: Culture of postnatal day 4 mouse ovaries with PTEN inhibitor, morphological analysis; assay type: cell-based; conditions: postnatal day 4 mouse ovaries cultured for 8 days, 10 μM inhibitor vs. carrier
Procedure: Postnatal day 4 mouse ovaries containing primordial follicles were cultured for 8 days with carrier (A) or PTEN inhibitor bpv (Hopic) (B).
Postnatal day 4 mouse ovaries were removed aseptically and the whole ovary was cultured in a Cell Strainer (40 μm pore size) (BD Biosciences, Stockholm, Sweden) in 1 ml alpha-MEM medium (Gibco-BRL) supplemented with 28 mM ascorbic acid and 0.3% (w/v) BSA, with or without 10 μM of the PTEN inhibitor bpV-HOpic (Dipotassium Bisperoxo(5-hydroxypyridine-2-carboxyl)oxovanadate (V), K2[VO(O2)2C6H4NO3]). The cultured ovaries were incubated in a humidified incubator (5% CO2, 37° C.) with one-third of the medium exchanged for fresh medium every day for the duration of the culture period. For fixation, the ovaries were washed once in PBS and fixed overnight in 4% paraformaldehyde, and embedded for morphological analysis.

Akt = test: Western blot of Akt activation (p-Akt, serine 473) in oocytes after Kit ligand treatment; assay type: cell-based, mouse; conditions: 100 ng/ml, 2 min; PD12-14 Pten loxP/loxP; GCre+ oocytes vs. control oocytes
Procedure: Oocytes were isolated from ovaries of Pten^loxP/loxP; GCre+ and Pten^loxP/loxP mice at PD5 and PD12-14, and western blots were performed (A) Levels of p-Akt (serine 473) and total Akt in PD12-14 Pten^loxP/loxP; GCre+ and Pten^loxP/loxP oocytes. (B) Activation of Akt (p-Akt, serine 473) by Kit ligand (KL) treatment (100 ng/ml, 2 min) in PD12-14 Pten^loxP/loxP; GCre+ and Pten^loxP/loxP oocytes. Levels of Akt were used as internal controls. (C) Signaling studies in Pten^loxP/loxP; GCre+ and Pten^loxP/loxP oocytes at PD5 and PD12-14, showing levels of p-Akt (serine 473), rpS6, p-rpS6 (serine 235/6), p-mTOR (serine 2448), p-TSC2 (threonine 1462), and p-S6K (threonine 389). Levels of total Akt, mTOR, TSC2, S6K, and β-actin were used as internal controls. All experiments were repeated at least 3 times. For isolation of PD5 oocytes for western blot, 10-15 Pten^loxP/loxP; GCre+ or Pten^loxP/loxP mice were used for each lane. For isolation of PD12-14 oocytes, 3-5 Pten^loxP/loxP^P; GCre+ mice or 6-10 Pten^loxP/loxP mice were used per lane. In each lane, 30-40 μg of protein sample was loaded.
Thus, activation of the pool of primordial follicles ends up with follicle depletion. This causes POF (premature ovarian failure) in Pten^loxP/loxP; GCr+ mice. The phenotype observed in these mice resembles that of human POF (Beck-Peccoz and Persani, Orphanet. J. Rare. Dis. 2006, 1: 9). […]

Molecule | proliferation and differentiation of flattened pre-granulosa cells into cuboidal granulosa cells [1] | survival rate of follicles in the cultured ovaries [1] | activation of Akt (p-Akt, serine 473) (Akt)
Dipotassium Bisperoxo(5-hydroxypyridine-2-carboxyl)oxovanadate (V) [bpV-HOpic] | stimulates the proliferation and differentiation of flattened pre-granulosa cells | enhances the survival rate of follicles | –
Kit ligand (KL): Kit ligand, activates the PI3K pathway in growing oocytes through its oocyte surface receptor Kit (protein, UniProt P20826 26-190, looked up) Soluble KIT ligand: KEICGNPVTDNVKDITKLVANLPNDYMITLNYVAGMDVLPSHCWLRDMVIQLSLSLTTLLDKFSNISEGLSNYSIIDKLGKIVDDLVLCMEENAPKNIKESPKRPETRSFTPEEFFSIFNRSIDAFKDFMVASDTSDCVLSSTLGPEKDSRVSVTKPFMLPPVAA | – | – | activated Akt to a greater extent

Reference: patent US9259438B2, “Methods for in vitro maturation of ovarian follicles” (priority 2008, dated 2016)
